Data: patent EP0765320B1, “BENZIMIDAZOLONE DERIVATIVES WITH CENTRAL DOPAMINERGIC ACTIVITY” (PFIZER INC., priority 1994, dated 1995)

How the values were obtained:
[1] = target: T1, human dopamine D4 receptor (Homo sapiens, UniProt P21917); experiment: D4 dopaminergic activity: [3H]Spiperone competition binding (assay similar to the one described); details: assay similar to the [3H]Spiperone binding assay on clonal cell lines expressing the human dopamine D4 receptor
T1 construct: expressed in transfected cells
T1 sequence (P21917 1-419): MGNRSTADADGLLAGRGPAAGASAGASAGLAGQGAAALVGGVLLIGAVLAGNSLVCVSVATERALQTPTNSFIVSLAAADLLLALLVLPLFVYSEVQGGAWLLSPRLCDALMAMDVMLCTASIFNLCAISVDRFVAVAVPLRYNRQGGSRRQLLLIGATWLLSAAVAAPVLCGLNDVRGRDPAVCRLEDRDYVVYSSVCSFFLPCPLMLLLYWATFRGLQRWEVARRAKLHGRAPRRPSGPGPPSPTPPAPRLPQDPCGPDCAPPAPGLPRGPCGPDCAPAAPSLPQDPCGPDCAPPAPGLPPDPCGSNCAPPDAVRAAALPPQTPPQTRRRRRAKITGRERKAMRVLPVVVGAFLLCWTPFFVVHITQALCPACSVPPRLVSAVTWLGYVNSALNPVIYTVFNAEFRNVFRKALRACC
Method: The D4 dopaminergic activity of the compounds of the present invention may be determined by the following procedure.
(§1) The determination of D4 dopaminergic activity has been described by Van Tol et al., Nature, vol. 350, 610 (London, 1991). Clonal cell lines expressing the human dopamine D4 receptor are harvested and homogenized (teflon pestle) in a 50 mM Tris:HCI (pH 7.4 at 4°C) buffer containing 5 mM EDTA, 1.5 mM calcium chloride (CaCl2), 5 mM magnesium chloride (MgCL2), 5mM potassium chloride (KCI) and 120 mM sodium chloride (NaCI). The homogenates are centrifugated for 15 min. at 39,000 g, and the resulting pellets resuspended in a buffer at a concentration of 150-250 µg/ml. For saturation experiments, 0.25 ml aliquots of tissue homogenate are incubated in duplicate with increasing concentrations of [^3H] Spiperone (70.3 Ci/mmol; 10-3000 pM final concentration) for 30-120 minutes at 22°C in a total volume of 1 ml. […] Assays are terminated by rapid filtration through a Titertek cell harvester and the filters subsequently monitored for tritium as described by Sunahara, R.K. et al., Nature, 346, 76-80 (1990). […] Both saturation and competition binding data are analyzed by the non-linear least square curve-fitting program Ligand run on a digital Micro-PP-11 as described by Sunahara et al.

D2 receptor = D2 receptor (Homo sapiens, UniProt P14416); experiment: D2 receptor binding in an assay similar to the D4 [3H]Spiperone binding assay; details: assay similar to the described [3H]Spiperone binding assay
Chain of D2 receptor (P14416 whole entry): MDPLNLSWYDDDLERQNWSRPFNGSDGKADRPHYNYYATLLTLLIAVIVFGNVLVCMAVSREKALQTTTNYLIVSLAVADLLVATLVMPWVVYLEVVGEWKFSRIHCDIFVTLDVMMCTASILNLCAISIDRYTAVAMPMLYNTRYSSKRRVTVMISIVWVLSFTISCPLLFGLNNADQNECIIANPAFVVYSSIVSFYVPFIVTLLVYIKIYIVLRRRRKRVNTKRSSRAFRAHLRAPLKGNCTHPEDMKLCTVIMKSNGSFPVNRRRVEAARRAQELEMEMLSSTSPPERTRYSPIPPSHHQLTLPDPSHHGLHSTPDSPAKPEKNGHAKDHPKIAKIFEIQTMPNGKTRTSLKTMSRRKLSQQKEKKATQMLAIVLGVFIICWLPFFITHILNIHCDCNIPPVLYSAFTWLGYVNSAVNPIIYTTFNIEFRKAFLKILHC
Method: as §1

SMILES	IC50 [1]	IC50 (D2 receptor)
O=c1[nH]c2ccccc2n1CCCN1CCN(c2ccc(Cl)cn2)CC1 [Example 1, 1-{3-[4-(5-Chloro-pyridin-2-yl)-piperazin-1-yl]-propyl}-1,3-dihydrobenzoimidazol-2-one]	≤ 110 nM	1000 to 3300 nM
O=c1[nH]c2ccccc2n1CCCN1CCN(c2ccc(C(F)(F)F)cn2)CC1 [Example 4, 1-{3-[4-(5-Trifluoromethyl-pyridin-2-yl)-piperazine-1-yl]-propyl}-1,3-dihydrobenzoimidazol-2-one]	≤ 110 nM	1000 to 3300 nM
